What was measured:
[1] = system: NQO1 mRNA in BEAS-2B cells; experiment: Beas2B NQO1 mRNA cell based assay; parameters: species or system human; details: Homo sapiens, BEAS-2B, 24 h, 24 h compound treatment, increase in NQO1 mRNA vs vehicle (0.1% DMSO), read-out: EC50
Procedure, shortened: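 Relative NQO1 transcript level derived by ΔΔCT with human β-actin as internal control, using direct-lysate one-step RT-qPCR. Cells were BEAS-2B, plated overnight then treated with compound for 24 h.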

[2] = biological target: human KEAP1 (N-term, residues 321-609) (Homo sapiens, UniProt Q14145); experiment: biochemical;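 also: fluorescence polarization competition assay of Kelch domain binding to NRF2, 12-point 1:3 dilution series from 10 µM, read after 1 h at room temperature, floor 10 nM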
Chain of human KEAP1 (N-term, residues 321-609) (Q14145 321-609): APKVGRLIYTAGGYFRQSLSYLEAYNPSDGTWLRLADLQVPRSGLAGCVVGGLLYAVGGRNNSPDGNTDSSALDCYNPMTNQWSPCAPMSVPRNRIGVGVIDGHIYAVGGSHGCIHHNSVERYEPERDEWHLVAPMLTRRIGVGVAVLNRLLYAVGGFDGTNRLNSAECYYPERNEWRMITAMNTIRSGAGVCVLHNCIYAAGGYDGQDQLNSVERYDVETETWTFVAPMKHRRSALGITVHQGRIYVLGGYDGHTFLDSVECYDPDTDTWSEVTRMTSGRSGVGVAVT

Compound COCc1c(COc2ccc(Cl)c3c2[C@@H](CN2CC4(CC4)CC2=O)N(C(=O)[C@@H]2CCCC[C@]2(C)C(=O)O)CC3)nnn1C [Example 160, (1S,2R)-2-((S)-5-chloro-8-((5-(methoxymethyl)-1-methyl-1H-1,2,3-triazol-4-yl)methoxy)-1-((6-oxo-5-azaspiro [2.4]heptan-5-yl)methyl)-1,2,3,4-tetrahydroisoquinoline-2-carbonyl)-1-methylcyclohexane-1-carboxylic acid] has an EC50 [1] of 0.72 nM and an IC50 [2] of 5 nM.
With C[C@@H]1CC(=O)N(C[C@@H]2c3c(OCc4cn(C)nn4)ccc(Cl)c3CCN2C(=O)[C@@H]2CCCC[C@]2(C)C(=O)O)C1 [Example 161, (1S,2R)-2-((S)-5-chloro-8-((1-methyl-1H-1,2,3-triazol-4-yl)methoxy)-(((R)-4-methyl-2-oxopyrrolidin-1-yl)methyl)-1,2,3,4-tetrahydroisoquinoline-2-carbonyl)-1-methylcyclohexane-1-carboxylic acid] the EC50 [1] was 11 nM and the IC50 [2] was 7.9 nM.
For COCc1c(COc2ccc(Cl)c3c2[C@@H](CN2C[C@H](C)CC2=O)N(C(=O)[C@@H]2CCCC[C@]2(C)C(=O)O)CC3)nnn1C [Example 162, (1S,2R)-2-((S)-5-chloro-8-((5-(methoxymethyl)-1-methyl-1H-1,2,3-triazol-4-yl)methoxy)-1-(((R)-4-methyl-2-oxopyrrolidin-1-yl)methyl)-1,2,3,4-tetrahydroisoquinoline-2-carbonyl)-1-methylcyclohexane-1-carboxylic acid], the EC50 [1] was 2.4 nM and the IC50 [2] was 6.3 nM.
In the case of C[C@@H]1CC(=O)N(C[C@@H]2c3c(OCc4nnn(C)c4C4CC4)ccc(Cl)c3CCN2C(=O)[C@@H]2CCCC[C@]2(C)C(=O)O)C1 [Example 163, (1S,2R)-2-((S)-5-chloro-8-((5-cyclopropyl-1-methyl-1H-1,2,3-triazol-4-yl)methoxy)-1-(((R)-4-methyl-2-oxopyrrolidin-1-yl)methyl)-1,2,3,4-tetrahydroisoquinoline-2-carbonyl)-1-methylcyclohexane-1-carboxylic acid], the EC50 [1] is reported as 0.78 nM and the IC50 [2] is reported as 5.3 nM.
With C[C@]1(C(=O)O)CCCC[C@H]1C(=O)N1CCc2c(Cl)ccc(OCc3noc4c(F)cccc34)c2[C@H]1CN1CCCC1=O [Example 164, (1S,2R)-2-((S)-5-chloro-8-((7-fluorobenzo[d]isoxazol-3-yl)methoxy)-1-((2-oxopyrrolidin-1-yl)methyl)-1,2,3,4-tetrahydroisoquinoline-2-carbonyl)-1-methylcyclohexane-1-carboxylic acid] the EC50 [1] was 2.6 nM and the IC50 [2] was 6 nM.
For C[C@]1(C(=O)O)CCCC[C@H]1C(=O)N1CCc2c(Cl)ccc(OCc3noc4c(F)c(F)ccc34)c2[C@H]1CN1CCCC1=O [Example 165, (1S,2R)-2-((S)-5-chloro-8-((6,7-difluorobenzo[d]isoxazol-3-yl)methoxy)-1-((2-oxopyrrolidin-1-yl)methyl)-1,2,3,4-tetrahydroisoquinoline-2-carbonyl)-1-methylcyclohexane-1-carboxylic acid], the EC50 [1] was 11 nM and the IC50 [2] was 8.4 nM.
For Cc1cc(COc2ccc(Cl)c3c2[C@@H](CN2CCCC2=O)N(C(=O)[C@@H]2CCCC[C@]2(C)C(=O)O)CC3)no1 [Example 166, (1S,2R)-2-((S)-5-chloro-8-((5-methylisoxazol-3-yl)methoxy)-1-((2-oxopyrrolidin-1-yl)methyl)-1,2,3,4-tetrahydroisoquinoline-2-carbonyl)-1-methylcyclohexane-1-carboxylic acid], the EC50 [1] was 40 nM and the IC50 [2] was 7.5 nM.
For Cc1noc(COc2ccc(Cl)c3c2[C@@H](CN2CCCC2=O)N(C(=O)[C@@H]2CCCC[C@]2(C)C(=O)O)CC3)n1 [Example 167, (1S,2R)-2-((S)-5-chloro-8-((3-methyl-1,2,4-oxadiazol-5-yl)methoxy)-1-((2-oxopyrrolidin-1-yl)methyl)-1,2,3,4-tetrahydroisoquinoline-2-carbonyl)-1-methylcyclohexane-1-carboxylic acid], the EC50 [1] was 280 nM and the IC50 [2] was 16 nM.

Source: patent US12098148B2, “Therapeutic compounds” (C4X Discovery Limited, priority 2018, dated 2024)
